The source of these data is DBAASP.

Assay in all cases: ≥ marks a high value that may be exact or a test limit, other limits are often not marked, values filed in µg/mL are converted to µM
Assay [1] has as its system Streptococcus mutans.
The test system of assay [2] is Escherichia coli ATCC 25922.
In assay [3] the test system is Staphylococcus aureus NCTC 8325.
The test system of assay [4] is Candida albicans ATCC 90028.
Assay [5] has as its system Escherichia coli ATCC 25726.
For assay [6], the system named is Staphylococcus aureus ATCC 25923.
Assay [7] concerns Pseudomonas aeruginosa ATCC 27853.
Assay [8] relates to Escherichia coli ATCC 11775.
The test system of assay [9] is Salmonella typhimurium KCTC 1926.
Assay [10] has as its system Staphylococcus aureus KCTC 1621.
The subject of assay [11] is Staphylococcus epidermidis KCTC 1917.
Assay [12] concerns Bacillus subtilis KCTC 3068.
For assay [13], the system named is Pseudomonas aeruginosa KCTC 1637.
Assay [14] concerns Escherichia coli KCTC 1682.

≈ marks a conversion by molar mass, not a printed value. Where only a bound is given, the exact number is not on record here.

Usually MIC stands for the lowest concentration that inhibits growth of the organism.

In [1], `CC(C)C[C@H](NC(=O)[C@H](Cc1c[nH]c2ccccc12)NC(=O)[C@H](CCCCN)NC(=O)[C@H](CC(C)C)NC(=O)[C@H](Cc1ccccc1)NC(=O)[C@@H](NC(=O)[C@H](CCCCN)NC(=O)[C@@H](N)Cc1ccccc1)[C@@H](C)O)C(=O)N[C@@H](Cc1cnc[nH]1)C(=O)N[C@@H](CCCN=C(N)N)C(=O)N[C@@H](Cc1ccccc1)C(N)=O` [FKTFLKWLHRF] had an MIC of 15.8 µM (≈ 24 µg/mL).

In the case of `CC[C@H](C)[C@H](NC(=O)CNC(=O)[C@H](CO)NC(=O)[C@H](CC(C)C)NC(=O)[C@H](CC(C)C)NC(=O)[C@H](CCCCN)NC(=O)CNC(=O)[C@H](CC(C)C)NC(=O)[C@@H](NC(=O)[C@@H]1CCCN1C(=O)[C@H](CC(C)C)NC(=O)[C@@H](N)Cc1ccccc1)[C@@H](C)CC)C(=O)N[C@@H](CC(C)C)C(N)=O` [FLPILGKLLSGIL], the MIC in assay [2] is more than 100 µM; in assay [3], 15 µM (≈ 20.7 µg/mL).

`CC[C@H](C)[C@H](NC(=O)[C@H](CC(C)C)NC(=O)[C@H](CCCCN)NC(=O)[C@H](CCCCN)NC(=O)[C@@H](NC(=O)[C@H](C)NC(=O)[C@H](CCCCN)NC(=O)[C@@H](NC(=O)[C@H](C)NC(=O)[C@H](Cc1cnc[nH]1)NC(=O)[C@@H]1CCCN1C(=O)[C@@H](NC(=O)[C@H](CC(C)C)NC(=O)[C@@H]1CCCN1C(=O)[C@H](CCCCN)NC(=O)[C@@H](NC(=O)[C@H](Cc1ccc(O)cc1)NC(=O)[C@H](CCCCN)NC(=O)[C@H](CCSC)NC(=O)[C@H](Cc1ccccc1)NC(=O)CN)[C@@H](C)CC)[C@@H](C)CC)C(C)C)[C@@H](C)CC)C(=O)O` [GFMKYIKPLIPHAVKAIKKLI]: the MIC was not below 200 µM in assay [4], 6.25 µM (≈ 15.1 µg/mL) in assay [2] and not below 50 µM in [3].

With `CC[C@H](C)[C@H](NC(=O)CN)C(=O)N[C@@H](CC(C)C)C(=O)N[C@@H](CC(=O)O)C(=O)N[C@@H](CO)C(=O)N[C@@H](Cc1ccccc1)C(=O)N[C@@H](CCCCN)C(=O)NCC(=O)N[C@H](C(=O)N[C@@H](C)C(=O)N[C@@H](CCCCN)C(=O)NCC(=O)N[C@H](C(=O)N[C@@H](C)C(=O)N[C@@H](CCCCN)C(=O)N[C@@H](CC(=O)O)C(=O)N[C@@H](CC(C)C)C(=O)N[C@@H](C)C(=O)NCC(=O)N[C@@H](CCCCN)C(=O)N[C@@H](CC(C)C)C(=O)N[C@@H](CC(C)C)C(=O)N[C@@H](CC(=O)O)C(=O)N[C@@H](CCCCN)C(=O)N[C@@H](CC(C)C)C(=O)N[C@@H](CCCCN)C(=O)N[C@H]1CSSC[C@@H](C(=O)O)NC(=O)CNC(=O)[C@H]([C@@H](C)O)NC(=O)[C@H]([C@@H](C)CC)NC(=O)[C@H](CCCCN)NC1=O)C(C)C)C(C)C` [GILDSFKGVAKGVAKDLAGKLLDKLKCKITGC], the MIC was 25 µM (≈ 82.2 µg/mL) in assay [5]; not below 150 µM in [4]; 50 µM (≈ 164 µg/mL) in [6]; 4 µM (≈ 13.2 µg/mL) in assay [2]; 11 µM (≈ 36.2 µg/mL) in assay [3].

With `CC[C@H](C)[C@H](NC(=O)CNC(=O)CNC(=O)[C@@H](NC(=O)[C@H](Cc1ccccc1)NC(=O)[C@H](CC(C)C)NC(=O)[C@H](CO)NC(=O)[C@H](CC(C)C)NC(=O)[C@@H](NC(=O)CN)[C@@H](C)CC)[C@@H](C)O)C(=O)N[C@@H](CCCCN)C(=O)N[C@@H](C)C(=O)N[C@@H](CC(C)C)C(=O)NCC(=O)N[C@@H](CCCCN)C(=O)N[C@H](C(=O)N[C@@H](CC(C)C)C(=O)N[C@@H](Cc1ccccc1)C(=O)N[C@@H](CCCCN)C(=O)N[C@@H](CCSC)C(=O)N[C@@H](C)C(=O)NCC(=O)N[C@@H](CCCCN)C(=O)N[C@@H](C)C(=O)NCC(=O)N[C@@H](C)C(=O)N[C@@H](CCC(=O)O)C(=O)N[C@@H](Cc1cnc[nH]1)C(=O)N[C@@H](CC(C)C)C(=O)N[C@@H](C)C(=O)N[C@H]1CSSC[C@@H](C(=O)O)NC(=O)[C@H](CCC(N)=O)NC(=O)[C@H](CC(N)=O)NC(=O)[C@H]([C@@H](C)O)NC(=O)[C@H](C)NC(=O)[C@H](CCCCN)NC1=O)[C@@H](C)O` [GILSLFTGGIKALGKTLFKMAGKAGAEHLACKATNQC], the MIC in assay [4] is not below 53 µM; in assay [2], 6 µM (≈ 22.5 µg/mL); in [3], 3 µM (≈ 11.2 µg/mL).

For `CC[C@H](C)[C@@H]1NC(=O)[C@H](CCCCN)NC(=O)[C@@H](NC(=O)[C@H](CCCCN)NC(=O)[C@H](CC(C)C)NC(=O)[C@H](CCCCN)NC(=O)[C@H](CC(=O)O)NC(=O)[C@H](CC(C)C)NC(=O)[C@H](CCSC)NC(=O)[C@H](CO)NC(=O)[C@H](C)NC(=O)[C@H](C)NC(=O)[C@@H](NC(=O)[C@@H](NC(=O)[C@H](CCCCN)NC(=O)[C@H](C)NC(=O)[C@@H](NC(=O)CNC(=O)[C@H](CCCCN)NC(=O)[C@@H](NC(=O)[C@@H](NC(=O)[C@H](CC(=O)O)NC(=O)[C@H](CC(C)C)NC(=O)[C@H](CC(C)C)NC(=O)CN)[C@@H](C)O)[C@@H](C)CC)C(C)C)[C@@H](C)O)C(C)C)CSSC[C@@H](C(=O)O)NC(=O)CNC(=O)[C@H](CO)NC1=O` [GLLDTIKGVAKTVAASMLDKLKCKISGC], the MIC in [4] was not below 35 µM; in assay [2] it was 2 µM (≈ 5.73 µg/mL); in assay [3] it was 2 µM (≈ 5.73 µg/mL).

With `NCCCC[C@H](NC(=O)[C@H](Cc1c[nH]c2ccccc12)NC(=O)[C@H](CCC(N)=O)NC(=O)[C@H](Cc1c[nH]c2ccccc12)NC(=O)[C@H](CCCCN)NC(=O)[C@@H](N)CCCCN)C(=O)O` [KKWQWK], the minimal inhibitory concentration (MIC) in assay [7] worked out at 47 µM (≈ 42.4 µg/mL); in assay [6], 47 µM (≈ 42.4 µg/mL); in assay [2] it was 47 µM (≈ 42.4 µg/mL); in assay [8] it was 23 µM (≈ 20.8 µg/mL).

Regarding `CC[C@H](C)[C@H](NC(=O)[C@H](Cc1ccccc1)NC(=O)[C@H](CCCCN)NC(=O)[C@@H](NC(=O)[C@H](Cc1ccccc1)NC(=O)[C@H](CCC(N)=O)NC(=O)[C@H](CCCCN)NC(=O)[C@@H](N)CC(C)C)C(C)C)C(=O)N[C@@H](Cc1cnc[nH]1)C(=O)N[C@@H](CCCN=C(N)N)C(=O)N[C@@H](Cc1ccccc1)C(N)=O` [LKQFVKFIHRF], the MIC in assay [1] came to 16.4 µM (≈ 24 µg/mL).

As to `CC[C@H](C)[C@H](NC(=O)[C@H](CC(C)C)NC(=O)[C@H](CCCCN)NC(=O)[C@@H](NC(=O)[C@@H](NC(=O)[C@H](CCCN=C(N)N)NC(=O)[C@@H](N)CC(C)C)[C@@H](C)CC)C(C)C)C(=O)N[C@@H](CC(C)C)C(=O)N[C@@H](CCCCN)C(=O)N[C@@H](Cc1c[nH]c2ccccc12)C(=O)N[C@@H](CC(C)C)C(=O)N[C@@H](CCCN=C(N)N)C(N)=O` [LRIVKLILKWLR], the minimal inhibitory concentration (MIC) was 4 µM (≈ 6.2 µg/mL) in [9]; 4 µM (≈ 6.2 µg/mL) in assay [10]; 2 µM (≈ 3.1 µg/mL) in [11]; 8 µM (≈ 12.4 µg/mL) in assay [12]; 16 µM (≈ 24.8 µg/mL) in [13]; 16 µM (≈ 24.8 µg/mL) in assay [14].

With `CC[C@H](C)[C@H](NC(=O)[C@H](CCCN=C(N)N)NC(=O)[C@H](CCCCN)NC(=O)[C@H](CC(C)C)NC(=O)[C@H](C)NC(=O)[C@@H](N)CCCN=C(N)N)C(=O)N[C@@H](CCCCN)C(=O)N[C@@H](Cc1cnc[nH]1)C(=O)N[C@H](C(=O)N[C@@H](CC(C)C)C(=O)N[C@@H](CCCCN)C(=O)O)C(C)C` [RALKRIKHVLK], in assay [1], the minimal inhibitory concentration (MIC) is not below 91.8 µM.

In the case of `CC[C@H](C)[C@H](NC(=O)[C@H](CCCN=C(N)N)NC(=O)[C@H](CC(C)C)NC(=O)[C@H](CC(C)C)NC(=O)[C@@H](N)CCCN=C(N)N)C(=O)N[C@@H](Cc1c[nH]c2ccccc12)C(=O)N[C@@H](Cc1c[nH]c2ccccc12)C(=O)N[C@H](C(=O)N[C@@H](CCCN=C(N)N)C(=O)N[C@H](C(=O)N[C@@H](CC(C)C)C(=O)N[C@@H](CCCN=C(N)N)C(N)=O)C(C)C)[C@@H](C)CC` [RLLRIWWIRVLR], the minimum inhibitory concentration (MIC) in assay [9] was 1.86 µM (≈ 3.13 µg/mL); in assay [10] it was 7.44 µM (≈ 12.5 µg/mL); in [11], 3.72 µM (≈ 6.25 µg/mL); in assay [12], 7.44 µM (≈ 12.5 µg/mL); in assay [13] it was 3.72 µM (≈ 6.25 µg/mL); in assay [14], 14.9 µM (≈ 25 µg/mL).

In the case of `CC(C)C[C@H](NC(=O)[C@H](Cc1cnc[nH]1)NC(=O)[C@H](CCC(N)=O)NC(=O)[C@H](Cc1ccccc1)NC(=O)[C@H](CCC(=O)O)NC(=O)[C@@H](NC(=O)[C@H](CC(C)C)NC(=O)[C@H](CC(C)C)NC(=O)[C@@H](N)Cc1ccc(O)cc1)[C@@H](C)O)C(=O)N[C@@H](Cc1ccccc1)C(=O)N[C@@H](CCCCN)C(=O)O` [YLLTEFQHLFK], in [1], the minimum inhibitory concentration (MIC) was not below 86.9 µM.
